Reference: patent US20220265775A1, “COMPOSITIONS AND METHODS FOR TREATING PULMONARY EDEMA OR LUNG INFLAMMATION” (priority 2019, published 2022)

Columns and labels:
[1] = system: hyperoxia-induced lung injury; assay: Lung lavage (BAL) analyses in hyperoxia-exposed rats: protein concentration and cell counts; format: in vivo, Sprague Dawley rats
Description: (§1) All experimental protocols for animal treatments were approved by the University of Minnesota Institutional Animal Care and Use Committee. […] The room-air control rats were kept in the University animal housing facility. At the end of hyperoxic exposure, rats were sacrificed by intraperitoneal pentobarbital injection, and the lungs were harvested; the right lobes were allocated for histopathology, measurement of lung tissue myeloperoxidase (MPO) activity and wet-to-dry weight ratio. The left lobes underwent bronchoalveolar lavage (BAL) to determine BAL protein concentrations and differential cell counts.
Bronchoalveolar lavage (BAL) of the left lung was performed using a modification of a method previously described (Pace et al., Exp Lung Res 35:380-398, 2009). Briefly, 4 mls of ice-chilled 1×PBS (pH 7.4) were instilled into the left lung, withdrawn, and re-instilled two subsequent times prior to analysis of the lavage fluid. The retrieved BAL fluid was centrifuged at 1500 rpm for 10 minutes to remove cells and debris. The cell pellet was resuspended in 1 ml of 1×PBS (pH 7.4) and total cell number was counted using a hemocytometer. BAL cytospin preparations were stained using the Hema3 stain kit (Thermo Fisher Scientific, Inc., Waltham, Mass.) to identify the nucleated cells. The protein concentration was determined on the supernatants of BAL fluid using a standard BCA assay (Sigma-Aldrich, St. Louis, Mo.).

[2] = Preliminary tolerability of intratracheal instillation of liothyronine sodium in rats; format: in vivo; settings: preliminary studies, pH of >10.0 as supplied commercially
Experimental: Therefore, the liothyronine sodium and the vehicle were adjusted to neutral pH (6.0-8.0) with sterile 1.0 N HCl (Sigma-Aldrich, St. Louis, Mo.) added aseptically in a biosafety cabinet prior to intratracheal instillation into animals. Using aseptic technique, vials of liothyronine sodium were opened and the entire contents were transferred into sterile 1.5 mL Eppendorf tubes. 80-90 μL of 1.0 N HCl was added to the tube and gently vortexed, and the pH was measured using pH test strips (pH 4.5 to 10.0, Ricca Chemical Co., Arlington, Tex.). Additional HCl was titrated in gradually, as needed, until the pH was in the desired range. […] This solution was stored at 4° C. and used for up to 26 hours after pH adjustment procedure. […] The vehicle was also adjusted to neutral pH (6.0-8.0) with 1.0 N HCl as described above. Using aseptic technique the vehicle was filter sterilized and aliquoted into 21 sterile disposable tubes (5 mL each) and stored at 4° C., and a new tube was opened for each day of use. Normal Saline (0.9% Sodium Chloride Injection USP, B. Braun Medical, Inc., Bethlehem, Pa.), was stored at room temperature. A new package was opened for each day of use.

HO-1 = assay: Western blot of total cellular HO-1 protein in RLE-6TN cells under hyperoxia; format: cell-based, rat; settings: T3 10^−6 M
Experimental: FIG. 10. HO-1 upregulation is required for T3-increased RLE-6TN cell survival in hyperoxia. […] The cells were then collected for Western Blot analysis. (B) The cells were incubated in 21% O2 and 5% CO2 for 72 hours in the present of HO-1 inhibitor Tin Protoporphyrin IX (10^−6M). […] Cell viability is assessed with trypan blue. The number of viable cells under specific conditions is presented as a percentage of the cell number related to hyperoxia alone. Data are mean±s.d. of three independent experiments with *=P<0.05; **=P<0.01.
(§2) The cells were lysed in lysis buffer containing 20 mM Tris HCl (pH 7.5), 150 mM NaCl, 1 mM EDTA, 1 mM EGTA, 1% (vol/vol) Triton X-100 with protease inhibitors (1 mM PMSF, 2 μg/ml pepstatin, and 10 μg/ml each of aprotinin and leupeptin), and phosphatase inhibitors (2.5 mM sodium pyrophosphate, 1 mM β-glycerophosphate, and 1 mM Na3VO4). The lysate was drawn 10 times through a 25-gauge needle on ice for further lysis and then was centrifuged at 13,000 rpm for 15 minutes at 4° C. The supernatant was collected, and the protein concentrations were determined by use of the BCA protein assay kit (Sigma-Aldrich, St. Louis, Mo.). Immediately after this step, equal amounts of protein were subjected to Western blotting analysis.

[3] = Serum total T3 measurement (RIA) in hyperoxia-exposed rats; format: in vivo, Sprague Dawley rats; settings: rats exposed to 95% oxygen for 60 hours, intraperitoneal T3 supplementation 50 μg/kg bodyweight/24 hours, vs hyperoxia alone
Experimental: FIG. 13. […] Rats were exposed to ˜ 95% of oxygen for 60 hours. […] RA: room air control.
as §1
Blood samples were collected at the end of 60 hours of hyperoxia and were centrifuged at 13,000 rpm for 30 minutes at 4° C. Supernatant was stored at −20° C.

Nrf2 = assay: Western blot of total cellular and nuclear Nrf2 protein in RLE-6TN cells under hyperoxia; format: cell-based, rat; settings: 24 hours of hyperoxia, 10^−6 M T3
Experimental: FIG. 9. […] The cells were then collected for Western Blot analysis. (A) Cellular total Nrf2 protein; (B) Nuclear Nrf2.
Nuclei were extracted with NE-PER nuclear and cytoplasmic extraction reagents kit (Thermo Fisher Scientific, Inc., Waltham, Mass.) following the manufacturer's instruction.
as §2

[4] = system: myeloperoxidase (MPO) activity in lung tissue; assay: Myeloperoxidase (MPO) activity assay and MPO immunostaining of lung tissue of hyperoxia-exposed rats; format: in vivo, Sprague Dawley rats
Description: as §1
To quantify the neutrophil activity in the lung, MPO activity was assayed as previously described (Abraham et al., J Immunol 165:2950-2954, 2000). Lung tissues without prior lavage were frozen in liquid nitrogen, weighed, and stored at −86° C. The lungs were homogenized for 30 seconds in 1.5 ml 20 mM potassium phosphate, pH 7.4, and centrifuged at 4° C. for 30 minutes at 40,000×g. The pellet was resuspended in 1.5 ml 50 mM potassium phosphate, pH 6.0, containing 0.5% hexadecyltrimethylammonium bromide, sonicated for 90 seconds, incubated at 60° C. for two hours, and centrifuged at 14,000 rpm for 30 minutes at 4° C. The supernatant was assayed for peroxidase activity corrected to lung weight. MPO was expressed as activity per gram of lung tissue. […]

Structure (SMILES): N[C@@H](Cc1cc(I)c(Oc2ccc(O)c(I)c2)c(I)c1)C(=O)O [T3, triiodothyronine]
- neutrophils among BALF cells ([1]; rats after hyperoxia with T3 treatment (data not shown)): relatively few of the BALF cells after hyperoxia were neutrophils
- BALF cell numbers ([1]; rats, 95% oxygen, 48 hours and 60 hours, T3 administration vs hyperoxia alone): significantly reduced the BALF cell numbers
- BALF protein concentration ([1]; rats, hyperoxia, 48 hour and 60 hour time points, T3 administration vs hyperoxia alone): attenuated significantly the hyperoxic increases
- tolerability of intratracheal instillation [2]: do not tolerate
- total cellular protein of HO-1 (HO-1): significantly enhanced total cellular protein of HO-1
- serum total T3 level [3]: augmented serum total T3
- nuclear Nrf-2 protein expression (Nrf2): significantly increased both total cellular and nuclear Nrf-2 protein expression
- total cellular Nrf-2 protein expression (Nrf2): significantly increased both total cellular and nuclear Nrf-2 protein expression
- MPO-positive cells in the lungs (immunostaining) ([4]; T3-injected rats exposed to 95% oxygen for 60 hours vs hyperoxic lungs without T3): fewer MPO-positive cells
- lung MPO activity ([4]; rats, 60 hours of hyperoxia, T3 supplementation vs hyperoxia alone): significantly reduced the hyperoxia-induced MPO activity
